The test deals with T1, BK channel (large-conductance Ca2+-activated K+ channel) of cricket oviduct myocytes.
T1 construct: gene slo; native channel in isolated adult female lateral oviduct myocytes; single-channel patch clamp; not molecularly identified; homotetramer expected, auxiliary subunits unknown
The test can be described thus: cell-attached single-channel patch clamp, current amplitude, pipette backfill. Format: cell-based, Gryllus bimaculatus. The conditions noted are these: extracellular side; open-channel block; Hill coefficient 1.0; pipette solution 140 mM KCl, 1.6 mM CaCl2, pH 7.4; 22–27°C; counterion not given. The text has this:
cell-attached single-channel patch clamp, current amplitude, pipette backfill on BK channel (large-conductance Ca2+-activated K+ channel) of cricket oviduct myocytes | inhibitory effect on the current amplitude of a single BK channel with an IC50 value

The structures appear in SMILES notation.

Consider `CC[N+](CC)(CC)CC` [TEA, tetraethylammonium], for which the IC50 (in general, the concentration that gives 50% inhibition) was 319 ± 68.8 µM.

The record behind these values is article PMC10926482, “BK Channels Are Activated by Functional Coupling With L-Type Ca^2+ Channels in Cricket Myocytes” (Frontiers in Insect Science, 2021).
